Data: patent US5506271A, “Method of treating papilloma virus infection using hypericin” (New York University, priority 1993, dated 1996)
Entries after “also recorded” stand apart in the source; their conditions may differ. Where two headings read alike, the source gives them in different places.

Experiments:
[1] = Solubility of hypericin ion pair and salt forms in organic solvents; assay type: physicochemical
Excerpt: As indicated above, hypericin has hydroxy groups at R^1 and R^2 in its free acid form. Upon reaction with a base, the free acid form of hypericin ionizes at R^1 and R^2. Under alkaline conditions below about pH 11.5, only one of these hydroxy groups ionize to form a salt with the base. At more alkaline conditions, both hydroxy groups ionize to form a salt with two basic cations. The salt with two basic cations has substantially different physical properties as that with one cation. […] To differentiate these two forms of hypericin, the former, which behaves as an organic compound, will be referred to herein as an ion pair and the latter as a salt.

[2] = test system: Friend virus; test: Inactivation of Friend virus by hypericin, Rose Bengal and combinations, splenomegaly (FIG. 9); assay type: in vivo, BALB/C mice; conditions: agents at 2-5 mg/ml, 1 hour on ice, virus 1:2000, spleen weight day 14
Protocol: FIG. 9 is a graph showing the inactivation of Friend virus by Hypericin, Rose Bengal and combinations thereof. Friend virus was diluted 1:2000 in PBS and incubated with no hypericin or concentrations of hypericin of 1, 2, or 5 mg/ml alone, or in combination with Rose Bengal (RB) at concentrations of 2 and 5 mg/ml for 1 hour on ice. The treated virus preparations were injected into BALB/C mice. On day 14, 1 mouse from each group was sacrificed and analyzed for spleen weight.
FIGS. 9 and 10 show the results of a study in which Friend virus was treated with hypericin, Rose Bengal or combinations of hypericin and Rose Bengal at different concentrations and ratios. The virus treated in this manner was injected into BALB/C mice. […] Lack of, or suppression of, splenomegaly serves as an index of the degrees of virus inactivation. […] This proves that virus inactivation by both agents, alone and in combination, was effective.

[3] = test system: retroviral particles; test: Detergent-mediated (Triton X-100) release of reverse transcriptase from hypericin-treated viral particles; assay type: biochemical
Protocol: (§1) Thus it is much more difficult to measure reverse transcriptase from virus treated with hypericin prior to exposure to detergent than with virus first disrupted with detergent and then incubated with hypericin.
The effects on virion-encapsulated enzyme are presumed to be due to the failure of the capsids, within which the […] is sequestered, to be disrupted after hypericin treatment.

[4] = test system: purified reverse transcriptase enzyme; test: Enzymatic activity of purified reverse transcriptase enzyme; assay type: biochemical; conditions: assay conditions used, FIG. 2
Protocol: as §1

[5] = test system: Radiation leukemia virus (RadLV); test: Guanidinium hydrochloride extraction of RNA from hypericin-treated virions; design: species or system murine; conditions: virions treated with hypericin prior to GuHCl disruption; FIG. 3
Excerpt: The present inventors have further discovered that hypericin-treated retroviral particles become more resistant to dissociation by harsh denaturing reagents such as guanidinium hydrochloride (GuHCl). These denaturing agents effectively disrupt hydrogen bonding, thereby unfolding tertiary and quaternary structures of proteins and causing dissociation of bonded proteins and the collapse of biological structures.

[6] = test system: HIV; test: Effect of light on hypericin reduction of HIV infectivity titer for H9 target cells, limiting dilution assay; assay type: cell-based; conditions: ambient light; FIG. 5
Excerpt: FIG. 5 is a graph showing the effect of ambient light treatment on hypericin's ability to reduce the infectivity titer of HIV for H9 target cells, measured in a limiting dilution assay.

[7] = test system: HIV; test: HIV infectivity monitored by HIV-induced destruction of CEM ×174 cultures infected with dilutions of hypericin-treated virus; assay type: cell-based; conditions: for log reduction at 10 µg/mL: hypericin 10 μg/ml
Protocol: Hypericin can effectively inactivate retroviral particles rendering them non infectious.
In these experiments infectivity was monitored by HIVinduced destruction
of CEM ×174 after these cultures were infected with increasing
dilutions of hypericintreated virus. For Experiment 2, virus was incubate
(§2) overnight with hypericin at 4° C.. RT: reverse transcriptase

[8] = test system: HIV reverse transcriptase activity; test: Reverse transcriptase activity of hypericin-treated HIV; assay type: biochemical; conditions: Expt 1
Protocol: Hypericin Reduces Infectivity and Reverse Transcriptase
Activity of HIV Infecting CEM × 14 Cells
as §2

[9] = test system: Friend virus; test: Protective effect of virus preparations inactivated with hypericin, Rose Bengal or combinations against live Friend virus challenge (FIG. 10); assay type: in vivo, BALB/C mice; conditions: challenge day 21, spleens weighed after 15 days
Excerpt: FIG. 10 is a graph showing the protective effect of the inactivated virus preparations described in FIG. 9. On day 21 after administration of the treated virus preparation, all animals were challenged with live Friend virus. Also included were control groups of mice injected with live Friend virus, and mice injected with PBS only. After 15 days, all mice were sacrificed and their spleens weighed as a measure of protection.
In this experiment, inhibition of splenomegaly served as the measure of protection resulting from immunogenicity of the virus preparations.

[10] = test system: Friend leukemia virus (FLV); test: Inactivation of Friend leukemia virus by extracorporeal hypericin treatment, splenomegaly in mice; assay type: in vivo, BALB/c mice
Protocol: FIG. 6 is a graph showing the inactivation of Friend leukemia virus (FLV) extracorporeal treatment with hypericin. Virus infectivity is measured as splenomegaly. Uninfected mice generally have spleen weights in the range of 0.08 to 0.2 grams.
Synthetic hypericin prepared from emodin was solubilized in 0.5% aqueous benzyl alcohol and administered to a concentrated stock of Friend virus estimated to contain greater than 10^4 virus focus forming units at final hypericin concentrations of 1 μg/ml and 5 μg/ml. The mixture was incubated on ice for one hour. A control preparation was incubated in parallel in the absence of the compound. Additional experimental groups were exposed to light from a 200 watt visible light halogen source in the presence of equivalent hypericin concentrations for 1×30 seconds and 2×30 seconds respectively.
The treated virus was diluted in phosphate buffered saline (PBS) to final dilutions of 1:500 and of 1:2000. The diluted treated and control virus preparations were injected intraperitoneally into BALB/c mice (3 mice per group). A single mouse from each group was sacrificed on day 11 for assessment of spleen size in order to determine the degree of FLV inactivation by hypericin.

[11] = test system: murine RadLV particles; test: Inactivation of RadLV particles by hypericin with Rose Bengal (particle-derived reverse transcriptase); assay type: biochemical; conditions: Rose Bengal 1-2 μg/ml, hypericin 0.001-1 μg/ml; FIG. 4
Protocol: Assays for virus particle-derived reverse transcriptase were performed according to Stephenson, J. R. et al., Virology 48:749-756 (1972)).
Hypericin is a photodynamic agent which, in the presence of light, produces excited oxygen species such as singlet oxygen and superoxide radicals. These excited oxygen species play a role in the antiviral and antiretroviral activity of hypericin and hypericin analogs. While this property of producing excited oxygen species may account for inactivation of the virus or retrovirus particle, it is not sufficient to explain the enhanced immunogenicity of the inactivated virus. Support for this notion comes from experimental findings by the present inventors using another photodynamic agent, Rose Bengal. Rose Bengal also produces excited oxygen species, is also capable of inactivating retroviral particles and interacts synergistically with hypericin in inactivating the virus.

Structure (SMILES): Cc1cc(O)c2c(=O)c3c(O)cc(O)c4c5c(O)cc(O)c6c(=O)c7c(O)cc(C)c8c1c2c(c34)c(c78)c65 [hypericin]
- solubility in organic solvents ([1]; above pH 11.5 (salt, two cations)): substantially insoluble in organic solvents
- solubility in organic solvents ([1]; below pH 11.5 (ion pair, one cation)): soluble in organic solvents
- suppression of virus-induced splenomegaly (virus inactivation) [2]: effectively suppressed virus-induced splenomegaly
- detergent-mediated release of reverse transcriptase activity from viral particles ([3]; 0.5-1% Triton X-100, FIG. 1): prevents detergent-mediated (0.5-1% Triton X-100) release of reverse transcriptase activity
- resistance of virion to disruption with non-ionic detergents ([3]; 1% aqueous Triton X-100): more resistant to disruption
- effect on reverse transcriptase enzymatic activity [4]: no effect on reverse transcriptase enzymatic activity; also recorded: does not directly affect enzymatic activity of purified reverse transcriptase enzyme
- extraction of viral RNA by guanidinium hydrochloride [5]: dramatic inhibition of the ability of guanidinium hydrochloride to extract RNA; also recorded: yields of extractable RNA were markedly reduced
- effect of light on antiviral activity of hypericin [6]: Light can enhance the antiviral activity
- log reduction at 10 µg/mL ([7]; Human immunodeficiency virus 1, CEM174, Expt 1, read-out: INHIBITION (Log1 0 Reduction) INFECTIVITY): 4
- log reduction at 25 µg/mL ([7]; Human immunodeficiency virus 1, CEM174, Expt 1, hypericin 25 μg/ml, read-out: INHIBITION (Log1 0 Reduction) INFECTIVITY): 4.75
- log reduction at 1 µg/mL ([7]; Human immunodeficiency virus 1, CEM174, Expt 2, hypericin 1 μg/ml, virus incubated overnight at 4° C., read-out: INHIBITION (Log1 0 Reduction) INFECTIVITY): 0
- log reduction at 2 µg/mL ([7]; Human immunodeficiency virus 1, CEM174, Expt 2, hypericin 2 μg/ml, virus incubated overnight at 4° C., read-out: INHIBITION (Log1 0 Reduction) INFECTIVITY): 3.75
- log reduction at 5 µg/mL ([7]; Human immunodeficiency virus 1, CEM174, Expt 2, hypericin 5 μg/ml, virus incubated overnight at 4° C., read-out: INHIBITION (Log1 0 Reduction) INFECTIVITY): 4.25
- log reduction at 10 µg/mL ([7]; Human immunodeficiency virus 1, CEM174, Expt 2, virus incubated overnight at 4° C., read-out: INHIBITION (Log1 0 Reduction) INFECTIVITY): 4.75
- HIV infectivity titers diminished ([7]; after treatment with hypericin (summary of Table 3)): 3-4 logs
- INHIBITION (Log1 0 Reduction) RT ([8]; hypericin 10 μg/ml): 0.60 Log1 0 Reduction
- INHIBITION (Log1 0 Reduction) RT ([8]; hypericin 25 μg/ml): 1.72 Log1 0 Reduction
- protection from live virus challenge (immunogenicity of inactivated virus preparation) [9]: greatest degree of protection
- effect of increased light exposure on FV inactivation by hypericin ([10]; 200 watt visible light halogen source, 1×30 and 2×30 seconds): did not enhance the ability of hypericin to inactivate FV
- virus-induced splenomegaly after injection of hypericin-treated FLV ([10]; hypericin 1 and 5 μg/ml, 1 hour on ice, i.p. BALB/c mice, spleen size day 11, FIG. 6): significantly reduced the ability of the virus to induce splenomegaly; also recorded: absence or presence of minimal splenomegaly

Structure (SMILES): O=C1OC2(c3cc(I)c(O)c(I)c3Oc3c2cc(I)c(O)c3I)c2c(Cl)c(Cl)c(Cl)c(Cl)c21 [Rose Bengal]
- suppression of virus-induced splenomegaly (virus inactivation) [2]: effectively suppressed virus-induced splenomegaly
- protection from live virus challenge (immunogenicity of inactivated virus preparation) [9]: does not cause marked enhancement of immunogenicity
- protection from live virus challenge (immunogenicity of inactivated virus preparation) ([9]; listed as Rose-Bengal): lower levels of protection
- effect of Rose Bengal on hypericin inactivation of retroviral particles [11]: enhances the ability of hypericin; also recorded: enhanced the ability of hypericin to inactivate retroviral particles
